Source: US11414429B2, “Compound or pharmaceutically acceptable salt thereof” (RIKEN, priority 2016, dated 2022)
pIC50: −log10 of the molar value. Where two headings read alike, the source gives them in different places.

Legend:
[1] = biological target: T1, tankyrase 1 (TNKS 1) (Homo sapiens, UniProt O95271); assay: Tankyrase inhibitory activity test (ELISA, self-polyADP ribosylation), tankyrase 1; type: biochemical
T1 construct: 1,024-1,327aa; made in house; host or cells: cell-free protein synthesis system
T1 sequence (O95271 1024-1327): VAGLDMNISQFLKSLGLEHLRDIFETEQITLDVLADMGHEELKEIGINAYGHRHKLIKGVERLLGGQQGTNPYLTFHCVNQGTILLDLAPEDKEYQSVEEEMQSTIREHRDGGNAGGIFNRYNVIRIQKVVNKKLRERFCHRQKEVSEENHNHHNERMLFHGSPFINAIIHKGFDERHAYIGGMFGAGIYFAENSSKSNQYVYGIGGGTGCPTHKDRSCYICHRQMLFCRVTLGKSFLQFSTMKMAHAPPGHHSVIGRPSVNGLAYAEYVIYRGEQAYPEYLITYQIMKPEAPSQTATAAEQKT
Summary of the method: (§1)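 IC50 was fitted to residual self-polyADP-ribosylation activity, detected by HRP-streptavidin chemiluminescence. Plate-bound Flag fusions (TNKS1 1,024-1,327aa SAM+PARP; TNKS2 613-1,116aa ANK5+SAM+PARP, cell-free synthesized) saw compound for 10 min at room temperature in 50 mM Tris-HCl pH 8.0, 4 mM MgCl2, 0.2 mM DTT. Reaction with 225 μM NAD/25 μM 6-biotin-17-NAD solution ran 45 min at 30 °C.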

[2] = biological target: T2, tankyrase 2 (TNKS 2) (Homo sapiens, UniProt Q9H2K2); assay: Tankyrase inhibitory activity test (ELISA, self-polyADP ribosylation), tankyrase 2; type: biochemical
T2 construct: 613-1, 116aa; made in house; host or cells: cell-free protein synthesis system
T2 sequence (Q9H2K2 613-1166): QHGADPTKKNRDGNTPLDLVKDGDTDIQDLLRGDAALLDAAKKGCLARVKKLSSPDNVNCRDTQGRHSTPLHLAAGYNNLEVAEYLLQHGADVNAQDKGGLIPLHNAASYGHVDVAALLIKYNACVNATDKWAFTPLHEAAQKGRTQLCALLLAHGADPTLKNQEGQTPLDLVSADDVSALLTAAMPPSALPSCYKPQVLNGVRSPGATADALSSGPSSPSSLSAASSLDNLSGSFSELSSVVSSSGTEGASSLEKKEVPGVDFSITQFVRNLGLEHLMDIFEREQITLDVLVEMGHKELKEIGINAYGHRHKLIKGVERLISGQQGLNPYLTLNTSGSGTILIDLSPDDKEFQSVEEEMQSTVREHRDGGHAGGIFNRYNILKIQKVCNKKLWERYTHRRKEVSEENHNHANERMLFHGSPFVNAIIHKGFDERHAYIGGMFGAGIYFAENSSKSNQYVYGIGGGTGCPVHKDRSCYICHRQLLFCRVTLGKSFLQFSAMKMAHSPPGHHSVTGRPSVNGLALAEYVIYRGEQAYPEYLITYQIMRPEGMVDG
Summary of the method: as §1

[3] = tested on: human colorectal cancer cell line, COLO-320DM; assay: Cell proliferation inhibitory activity test (Celltiter-Glo Luminescent Cell Viability Assay); type: cell-based; settings: COLO-320DM cells, 96 hours, class symbols, read-out: COLO-320 DM (cell proliferation inhibitory activity, GI50 value)
Summary of the method: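 GI50 is taken as the concentration halving cell growth versus 1% DMSO control, measured by ATP luminescence. Compound exposure lasted 96 h at 37° C. under 5% CO2, after overnight seeding in RPMI-1640 with 10% FBS and 2 mM glutamine.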

[4] = ELISA, self-polyADP ribosylation, class symbols, read-out: TNKS1 (inhibitory activity against tankyrase 1, IC50 value)
[5] = ELISA, self-polyADP ribosylation, class symbols, read-out: TNKS2 (inhibitory activity against tankyrase 2, IC50 value)

## CN1CCCc2c1nc(N1CCC3(CC1)C(=O)N(C)c1cc(N4CCC(C(=O)O)CC4)cc(F)c13)[nH]c2=O [Example 422, 1-[4-fluoro-1-methyl-1′-(8-methyl-4-oxo-3,4,5,6,7,8-hexahydro-pyrido[2,3-d]pyrimi-din-2-yl)-2-oxospiro [indoline-3,4′-piperidin]-6-yl]piperidine-4-carboxylic acid]
[1]; [4]
  pIC50: > 7.70
[2]; [5]
  pIC50: > 7.70
[3]
  GI50: < 100 nM

## CN1CCCc2c1nc(N1CCC3(CC1)C(=O)N(C)c1cc(N4CC(C(=O)O)C4)cc(F)c13)[nH]c2=O [Example 423, 1-[4-fluoro-1-methyl-1′-(8-methyl-4-oxo-3,4,5,6,7,8-hexahydro-pyrido[2,3-d]pyrimi-din-2-yl)-2-oxospiro[in-doline-3,4′-piperidin]-6-yl]azetidine-3-carboxylic acid]
[1]; [4]
  pIC50: > 7.70
[2]; [5]
  pIC50: > 7.70
[3]
  GI50: < 100 nM

## CN1CCCc2c1nc(N1CCC3(CC1)C(=O)N(CC(N)=O)c1cc(F)cc(F)c13)[nH]c2=O [Example 424, 2-[4,6-difluoro-1′-(8-methyl-4-oxo-3,4,5,6,7,8-hexahydropyrido [2,3-d]pyrimidin-2-yl)-2-oxospiro[indoline-3,4′-piperidin]-1(2H)-yl]acetamide]
[1]; [4]
  pIC50: > 7.70
[2]; [5]
  pIC50: > 7.70
[3]
  GI50: 100 to 600 nM

## CN1CCCc2c1nc(N1CCC3(CC1)C(=O)N(C)c1c(OC4CC5CCC(C4)N5C)ccc(Cl)c13)[nH]c2=O (stereo not drawn) [Example 425, 4-chloro-1′-(4-hydroxy-8-methyl-6,7-dihydro-5H-pyrido[2,3-d]pyrimidin-2-yl)-1-methyl-7-[(8-methyl-8-azabicyclo [3.2.1]octan-3-yl)oxy] spiro[indole-3,4′-piperidin]-2-one]
[1]; [4]
  pIC50: > 7.70
[2]; [5]
  pIC50: > 7.70
[3]
  GI50: 100 to 600 nM

## CN1C(=O)C2(CCN(c3nc4c(c(=O)[nH]3)CCCN4)CC2)c2c(F)ccc(OCC(C)(C)O)c21 [Example 426, 4-fluoro-7-(2-hydroxy-2-methylpropoxy)-1′-(4-hydroxy-5,6,7,8-tetrahydropyrido[2,3-d]pyrimidin-2-yl)-1-methyl-spiro[indole-3,4′-piperidin]-2-one]
[1]; [4]
  pIC50: > 7.70
[2]; [5]
  pIC50: > 7.70
[3]
  GI50: 100 to 600 nM

## CN1CCCc2c1nc(N1CCC3(CC1)C(=O)N(C)c1cc(OCC(=O)NS(C)(=O)=O)cc(F)c13)[nH]c2=O [Example 427, 2-{[4-fluoro-1-methyl-1′-(8-methyl-4-oxo-3,4,5,6,7,8-hexahydro-pyrido[2,3-d]pyrimi-din-2-yl)-2-oxospiro [indoline-3,4′-piperidin]-6-yl]oxy}-N-(methyl-sulfonyl)acetamide]
[1]; [4]
  pIC50: > 7.70
[2]; [5]
  pIC50: > 7.70
[3]
  GI50: 600 to 1000 nM

## CN1CCCc2c1nc(N1CCC3(CC1)C(=O)N(C)c1cc(OCCNS(=O)(=O)N(C)C)cc(F)c13)[nH]c2=O [Example 428, 6-[2-(N,N-dimethyl-sulfamoyl)amino-ethoxy]-4-fluoro-1-methyl-1′-(8-methyl-4-oxo-3,4,5,6,7,8-hexahydro-pyrido[2,3-d]pyrimi-din-2-yl)spiro [indoline-3,4′-piperidin]-2(1 H)-one]
[1]; [4]
  pIC50: > 7.70
[2]; [5]
  pIC50: > 7.70
[3]
  GI50: 100 to 600 nM

## CN1CCCc2c1nc(N1CCC3(CC1)C(=O)N(CCO)c1cc(OCC#N)cc(F)c13)[nH]c2=O [Example 429, {[4-fluoro-1-(2-hydroxy-ethyl)-1′-(8-methyl-4-oxo-3,4,5,6,7,8-hexahydro-pyrido[2,3-d]pyrimidin-2-yl)-2-oxospiro[indoline-3,4′-piperidin]-6-yl]oxy} acetonitrile]
[1]; [4]
  pIC50: > 7.70
[2]; [5]
  pIC50: > 7.70
[3]
  GI50: 100 to 600 nM

## CN1CCCc2c1nc(N1CCC3(CC1)C(=O)N(CC(=N)N)c1cc(F)cc(F)c13)[nH]c2=O [Example 430, [4,6-difluoro-1′-(8-methyl-4-oxo-3,4,5,6,7,8-hexahydropyrido[2,3-d]pyrimidin-2-yl)-2-oxospiro[indoline-3,4′-piperidine]-1(2H)-yl]ethanimidamide]
[1]; [4]
  pIC50: > 7.70
[2]; [5]
  pIC50: > 7.70
[3]
  GI50: 600 to 1000 nM

## CN1CCCc2c1nc(N1CCC3(CC1)C(=O)N(C)c1cc(C(=O)O)cc(F)c13)[nH]c2=O [Example 431, 4-fluoro-1-methyl-1′-(8-methyl-4-oxo-3,4,5,6,7,8-hexahydro-pyrido[2,3-d]primi-din-2-yl)-2-oxospiro[indoline-3,4′-piperidine]-6-carboxylic acid]
[1]; [4]
  pIC50: > 7.70
[2]; [5]
  pIC50: > 7.70
[3]
  GI50: 600 to 1000 nM

## CN1CCCc2c1nc(N1CCC3(CC1)C(=O)N(C)c1cc(OCCNS(C)(=O)=O)cc(F)c13)[nH]c2=O [Example 432, N-(2-{[4-fluoro-1-methyl-1′-(8-methyl-4-oxo-3,4,5,6,7,8-hexahy-dropyrido[2,3-d]py-rimidin-2-yl)-2-oxospiro [indoline-3,4′-piperi-din]-6-yl]oxy}ethyl) methanesulfonamide]
[1]; [4]
  pIC50: 6.70 to 7.70
[2]; [5]
  pIC50: 6.70 to 7.70
[3]
  GI50: 100 to 600 nM

## CN1CCCc2c1nc(N1CCC3(CC1)OC(=O)c1cc(N4CCN(C(C)(C)C)CC4)cc(F)c13)[nH]c2=O [Example 434, 6-(4-tert-butylpipera-zin-1-yl)-4-fluoro-1′-(4-hydroxy-8-methyl-6,7-dihydro-5H-pyrido [2,3-d]pyrimidin-2-yl) spiro[2,3-benzofuran-3,4′-piperidine]-1-one]
[1]; [4]
  pIC50: > 7.70
[2]; [5]
  pIC50: > 7.70
[3]
  GI50: 600 to 1000 nM

## N#CCOc1cc(F)c2c(c1)N(CC(F)(F)F)C(=O)C21CCN(c2nc3c(c(=O)[nH]2)CCCN3)CC1 [Example 435, 2-[4-fluoro-2-oxo-1′-(4-oxo-3,4,5,6,7-hex-ahydropyrido[2,3-d]pyrimidin-2-yl)-1-(2,2,2-trifluoroethyl)spiro [indole-3,4′-piperidine]-6-yl]oxyacetonitrile]
[1]; [4]
  pIC50: > 7.70
[2]; [5]
  pIC50: > 7.70
[3]
  GI50: 100 to 600 nM

## CN1CCCc2c1nc(N1CCC3(CC1)C(=O)N(C)c1c(OCCNC(C)(C)C)ccc(F)c13)[nH]c2=O [Example 437, 7-[2-(tert-butylamino)ethoxy]-4-fluoro-1′-(4-hydroxy-8-methyl-6,7-dihydro-5H-pyrido [2,3-d]pyrimidin-2-yl)-1-methylspiro[indole-3,4′-piperidine]-2-one]
[1]; [4]
  pIC50: 6.70 to 7.70
[2]; [5]
  pIC50: 6.70 to 7.70
[3]
  GI50: 100 to 600 nM

## CN1C(=O)C2(CCN(c3nc4c(c(=O)[nH]3)CCCN4)CC2)c2c(Cl)ccc(OC3CCOC3)c21 (stereo not drawn) [Example 438, 4-chloro-1′-(4-oxo-3,4,5,6,7,8-hexahydro-pyrido[2,3-d]pyrimidin-2-yl)-1-methyl-7-(oxo-lan-3-yloxy)spiro [indole-3,4′-piperidine]-2-one]
[1]; [4]
  pIC50: > 7.70
[2]; [5]
  pIC50: > 7.70
[3]
  GI50: 600 to 1000 nM

## CN1CCCc2c1nc(N1CCC3(CC1)OC(=O)c1cc(N4CCN(CC(C)(C)O)CC4)cc(F)c13)[nH]c2=O [Example 439, 4-fluoro-1′-(4-hydroxy-8-methyl-6,7-dihydro-5H-pyrido[2,3-d]pyrimidin-2-yl)-6-[4-(2-hydroxy-2-methyl-propyl)piperazin-1-yl] spiro[2,3-benzofuran-3,4′-piperidine]-1-one]
[1]; [4]
  pIC50: > 7.70
[2]; [5]
  pIC50: > 7.70
[3]
  GI50: 100 to 600 nM

## CN1CCCc2c1nc(N1CCC3(CC1)OC(=O)c1cc(N4CCN(CCO)CC4)cc(F)c13)[nH]c2=O [Example 440, 4-fluoro-6-[4-(2-hydroxyethyl)piper-azin-1-yl]-1′-(4-hydroxy-8-methyl-6,7-dihydro-5H-pyrido[2,3-d]pyrimi-din-2-yl)spiro[2-benzofuran-3,4′-piperidine]-1-one]
[1]; [4]
  pIC50: > 7.70
[2]; [5]
  pIC50: > 7.70
[3]
  GI50: 100 to 600 nM

## COc1ccc(Cl)c2c1N(CCN1CCN(C(C)=O)CC1)C(=O)C21CCN(c2nc3c(c(=O)[nH]2)CCCN3C)CC1 [Example 441, 1-[2-(4-acetylpiper-azin-1-yl)ethyl]-4-chloro-1′-(4-hy-droxy-8-methyl-6,7-dihydro-5H-py-rido[2,3-d]pyrimi-din-2-yl)-7-methoxy-spiro[indole-3,4′-piperidine]-2-one]
[1]; [4]
  pIC50: 6.70 to 7.70
[2]; [5]
  pIC50: > 7.70
[3]
  GI50: 100 to 600 nM

## CN1CCCc2c1nc(N1CCC3(CC1)C(=O)N(C)c1cc(OCP(=O)(O)O)cc(F)c13)[nH]c2=O [Example 442, ({[4-fluoro-1-methyl-1′-(8-methyl-4-oxo-3,4,5,6,7,8-hexahydropyrido[2,3-d]pyrimidin-2-yl)-2-oxospiro[indoline-3,4′-piperidine]-6-yl]oxy}methyl) phosphonic Acid]
[1]
  pIC50: 6.70 to 7.70
[2]
  pIC50: 6.70 to 7.70
[3]
  GI50: 600 to 1000 nM

## COc1ccc(Cl)c2c1N(CC(F)(F)F)C(=O)C21CCN(c2nc3c(c(=O)[nH]2)CCCN3)CC1 [Example 443, 4-chloro-1′-(4-hy-droxy-3,5,6,7,8-tetra-hydropyrido[2,3-d]pyrimidin-2-yl)-7-methoxy-1-(2,2,2-trifluoroeth-yl)spiro[indole-3,4′-piperidine]-2-one]
[1]; [4]
  pIC50: > 7.70
[2]; [5]
  pIC50: > 7.70
[3]
  GI50: 600 to 1000 nM

## CN1CCN(c2ccc(-c3cc(F)c4c(c3)C(=O)OC43CCN(c4nc5c(c(=O)[nH]4)CCCN5C)CC3)cc2)CC1 [Example 444, 4-fluoro-1′-(4-hy-droxy-8-methyl-6,7-dihydro-5H-pyrido [2,3-d]pyrimidin-2-yl)-6-[4-(4-meth-ylpiperazin-1-yl)phenyl]spiro[2-benzofuran-3,4′-piperidine]-1-one]
[1]; [4]
  pIC50: 6.70 to 7.70
[2]; [5]
  pIC50: 6.70 to 7.70
[3]
  GI50: 100 to 600 nM
